This is an account of results in the NIST ThermoML archive (doi:10.1016/j.fluid.2010.06.017).

The data set is described as follows: wn = mass fraction of the nth substance listed. The conditions noted are these: 373.15 K; 34470 kPa; Liquid; Vibrating tube method; w1 = 0.4623.

± gives the expanded uncertainty stated by the source.

On to `FC(F)(F)C1(F)C(F)(F)C(F)(F)C(F)(F)C(F)(C(F)(F)F)C1(F)F` (stereo unspecified) + C, for which the mass density worked out at 1399 ± 17 kg/m3.

A word on the mass density: it is mass per unit of volume.
